The test system of assay [1] is human LDL. The experiment in a line: Modification (peroxidation) of human LDL by copper sulphate, MDA production. The assay is classed as biochemical. Particulars: for IC50: inhibition of human LDL oxidation induced by copper sulphate (5.10^-6 M), 24 hours, MDA production, read-out: IC50 (M) Cu^2+ (converted); for activity compared with probucol or vitamin E in protecting human LDL: human LDL in vitro, modifications induced by copper sulphate and endothelial cells. As to the method:
(§1) The activity of the compounds was tested in comparison with probucol and vitamin E taken as reference products.
1.1.1 Modification of LDL by copper sulphate
Human LDL are incubated for 24 hours in the presence of copper sulphate (5.10^-6 M) and in the absence or in the presence of the test compounds (10^-9 M to 10^-4 M).
After incubation, the peroxidation of the LDL is evaluated by agar gel electrophoresis and by the formation of one of the products of lipid peroxidation: malonic dialdehyde (MDA) (Parthasarathy S., Young S. G., Witztum J. L., Pittman R. C., and Steinberg D.; J. Clin. Invest. 77; 641-644, 1986).
(§2) The activity of the test compounds is evaluated by calculating the concentrations that reduce by 50% (IC50) the production of MDA compared with the control experiments without those compounds.

In assay [2] the test system is human LDL. In words: Modification (peroxidation) of human LDL by endothelial cells from the rabbit aorta, MDA production. The assay is classed as cell-based. The note with it: for IC50: inhibition of human LDL oxidation induced by endothelial cells (rabbit aorta), 24 hours, MDA production. The protocol: as §1
1.1.2 Modification of LDL by endothelial cells
Human LDL are incubated for 24 hours in the presence of endothelial cells from the rabbit aorta (RECL B4 line provided by Professor Steinberg, U.S.A), and in the absence or in the presence of the test compounds (10^-9 M to 10^-4 M).
After incubation, the peroxidation of the LDL is evaluated by agar gel electrophoresis and by the formation of one of the products of lipid peroxidation: malonic dialdehyde (MDA) (Steinbrecher U. P., Parthasarathy S., Leake D. S., Witztum J. L., and Steinberg D.; Proc. Nat. Acad. Sci. U.S.A 81, 3883-3887, 1984).
as §2

For the next assay, the system named is LDL of Watanabe rabbits. In words: Ex vivo study: peroxidation by copper sulphate of LDL from orally treated Watanabe rabbits, MDA production. It is filed as in vivo. As to the method:
as §1
2.1 Materials and methods
Watanabe rabbits (genetically hyperlipidaemic rabbits) weighing from 3 kg to 5 kg are used. […]
After treatment, the LDL of the animals are prepared by ultracentrifugation and subjected to oxidation with copper sulphate (5.10^-6 M). The lipid peroxidation of the LDL is evaluated after various periods of incubation with copper sulphate (from 2 to 24 hours) by measuring the formation of MDA.
Table B groups the MDA production values according to the period of incubation with copper sulphate of the LDL originating from control animals and from animals treated with the compound of Example 1 at different doses or with probucol.

Where a name gives a salt, the structure may show the parent alone. Some results are limits rather than exact numbers.

For `Cc1c(C)c2c(c(C)c1O)CCC(C)(/C=C\Cc1ccc(OC(C)(C)C(=O)O)cc1)O2` (racemic) [Example 15, Tert-butylamine (Z)-(R,S)-2-{4-3-(6-hydroxy-2,5,7,8-tetramethylchroman-2-yl)prop-2-en-1-yl!phenoxy}isobutyrate], the IC50 in the assay on human LDL [1] is 4e-08 M.

Take `Cc1c(C)c2c(c(C)c1O)CCC(C)(CCCc1ccc(OC(C)(C)C(=O)O)cc1)O2` (racemic) [Example 18, Tert-butylamine (R,S)-2-{4-3-(6-hydroxy-2,5,7,8-tetramethylchroman-2-yl)propyl!phenoxy}isobutyrate]: the 50% inhibitory concentration (IC50) with human LDL [1] was 6e-08 M.

As to `CC(C)(Oc1ccc(CCSc2cc(C(C)(C)C)c(O)c(C(C)(C)C)c2)cc1)C(=O)O` [Example 1, 2-{4-2-(3,5-di-tert-butyl-4-hydroxyphenylthio)ethyl!phenoxy}isobutyric acid], the “times more effective than is probucol (test using endothelial cells)” value with human LDL [2] (endothelial cells, compared with probucol) was found to be 1000 times. Moreover, the half-maximal inhibitory concentration (IC50) in the assay with human LDL [2] is 3 nM; in the assay with human LDL [1] it was 5e-08 M. For the same compound, the MDA production in the assay on LDL of Watanabe rabbits (50 mg/kg/day orally, 3 days, 2 hours incubation of LDL with copper sulphate) was 0.66 nmol/mg proteins; with LDL of Watanabe rabbits (50 mg/kg/day orally, 3 days, 4 hours incubation of LDL with copper sulphate), 0.35 nmol/mg proteins; with LDL of Watanabe rabbits (50 mg/kg/day orally, 3 days, 6 hours incubation of LDL with copper sulphate), 0.31 nmol/mg proteins; with LDL of Watanabe rabbits (50 mg/kg/day orally, 3 days, 8 hours incubation of LDL with copper sulphate), 0.26 nmol/mg proteins; in the assay on LDL of Watanabe rabbits (50 mg/kg/day orally, 3 days, 24 hours incubation of LDL with copper sulphate) it was 0.86 nmol/mg proteins. Also, the “inhibition of LDL peroxidation induced by copper sulphate” value in the assay on LDL of Watanabe rabbits (from a dose of 50 mg/kg/day) was “completely inhibits”. Moreover, the “activity compared with probucol or vitamin E in protecting human LDL” value in the assay with human LDL [1] is “greater activity”.

Take `Cc1cc(SCCc2ccc(OC(C)(C)C(=O)O)cc2)c(C)c(C)c1O` [Example 3, 2-{4-2-(4-hydroxy-2,3,5-trimethylphenylthio)ethyl!phenoxy}isobutyric acid]: in the assay with human LDL [1], the “activity compared with probucol or vitamin E in protecting human LDL” value is on record as “greater activity” and the IC50 is 9e-08 M.

Consider `CC(C)(Oc1ccc(CSc2cc(C(C)(C)C)c(O)c(C(C)(C)C)c2)cc1)C(=O)O` [Example 4, 2-4-(3,5-di-tert-butyl-4-hydroxyphenylthiomethyl)phenoxy!isobutyric acid], for which, in the assay with human LDL [1], the “activity compared with probucol or vitamin E in protecting human LDL” value is on record as “greater activity” and the IC50 is 3e-08 M.

On to `CC(C)(Oc1ccc(CCCSc2cc(C(C)(C)C)c(O)c(C(C)(C)C)c2)cc1)C(=O)O` [Example 5, tert-butylamine salt of 2-{4-3-(3,5-di-tert-butyl-4-hydroxyphenylthio)propyl!phenoxy}isobutyric acid], for which, in the assay on human LDL [1], the “activity compared with probucol or vitamin E in protecting human LDL” value is given as “greater activity” and the half-inhibitory concentration (IC50) is 4e-08 M.

As for `Cc1cc(OCCc2ccc(OC(C)(C)C(=O)O)cc2)c(C)c(C)c1O` [Example 9, 2-{4-2-(4-hydroxy-2,3,5-trimethylphenoxy)ethyl!phenoxy}isobutyric acid], in the assay with human LDL [1], the concentration for half-maximal inhibition (IC50) is 5e-07 M.

For the compound `CC(C)(Oc1ccc(CCOc2cc(C(C)(C)C)c(O)c(C(C)(C)C)c2)cc1)C(=O)O` [Example 10, 2-{4-2-(3,5-di-tert-butyl-4-hydroxyphenoxy)ethyl!phenoxy}isobutyric acid], the concentration for half-maximal inhibition (IC50) in the assay on human LDL [2] is 7 nM; with human LDL [1], 2e-08 M.

With `CC(C)(Sc1cc(C(C)(C)C)c(O)c(C(C)(C)C)c1)Sc1cc(C(C)(C)C)c(O)c(C(C)(C)C)c1` [PROBUCOL, probucol, reference compound], the half-maximal inhibitory concentration (IC50) in the assay with human LDL [2] is 4000 nM; in the assay with human LDL [1], 3e-06 M. Besides, the “retardation of LDL peroxidation compared with control animals” value with LDL of Watanabe rabbits (250 mg/kg/day) was “approximately 2 hours”. Besides, the MDA production in the assay with LDL of Watanabe rabbits (250 mg/kg/day orally, 2 hours incubation of LDL with copper sulphate) is given as 1.85 nmol/mg proteins; with LDL of Watanabe rabbits (250 mg/kg/day orally, 4 hours incubation of LDL with copper sulphate) it was 3.50 nmol/mg proteins; in the assay on LDL of Watanabe rabbits (250 mg/kg/day orally, 6 hours incubation of LDL with copper sulphate), 4.90 nmol/mg proteins; in the assay with LDL of Watanabe rabbits (250 mg/kg/day orally, 8 hours incubation of LDL with copper sulphate) it was 12.26 nmol/mg proteins; in the assay on LDL of Watanabe rabbits (250 mg/kg/day orally, 24 hours incubation of LDL with copper sulphate), 23.81 nmol/mg proteins.

On to vitamin E [reference compound], for which the figures for the 50% inhibitory concentration (IC50) in the assay on human LDL [2] and in the assay on human LDL [1] were 4000 nM and over 0.0001 M, respectively.

The values above are taken from patent publication US5512595A, “Substituted phenoxyisobutyric acids and esters” (Adir et Compagnie, priority 1993, dated 1996).
